Read-outs that look alike come from different tables or passages of the source.

For data set [1] the following is noted: rcm bond, Zhan's catalyst, DCE.
In a further data set the test system is HCV genotype 1b replicon. The experiment in a line: HCV replicon assay, genotype 1b replicon EC50. The format is cell-based, Hepatitis C virus. Particulars: Hepatitis C virus, HCV replicon, genotype 1b, read-out: EC50 [gt-1b]. Summed up: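 Compound dilution series incubated 24-48 h, G418 absent, with HCV genotype 1b replicon cell lines kept under G418 selection beforehand. Luciferase signal or replicon RNA, by ^32P hybridization/protection or TaqMan normalized to cyclophilin A, was measured after washing and lysis. Four-parameter fitting against DMSO control gave EC50.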
For orientation: In antiviral work, replicon cells carry a viral genome segment that copies itself.

Data set [2] concerns the target HCV NS3/4A protease genotype 3a (Hepatitis C virus genotype 3a, UniProt Q81495). As to the kind of experiment: HCV NS3/4A protease time-resolved fluorescence (TRF) assay, Ki against genotype 3a. The format is biochemical. Summed up:
(§1)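 Ki values come from IC50 fits corrected for substrate concentration and KM. The time-resolved fluorescence protease reaction used 25 nM peptide substrate, 2.5 h, room temperature, pH 7.5 HEPES buffer, after 30 min enzyme–inhibitor preincubation.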

The target of data set [3] is HCV NS3/4A protease A156T mutant (Hepatitis C virus genotype 1b, UniProt P26663, A1182T). The experiment in a line: HCV NS3/4A protease time-resolved fluorescence (TRF) assay, Ki against A156T mutant. As to conditions: NS3/4A protease TRF assay, A156T mutant enzyme 0.4 nM, read-out: IC50 [gt-1b A156T]. The class given is biochemical. Summed up: as §1
Data set [4] concerns the target HCV NS3/4A protease genotype 1b (Hepatitis C virus genotype 1b, UniProt P26663). The experiment in a line: HCV NS3/4A protease time-resolved fluorescence (TRF) assay, Ki against genotype 1b. The class given is biochemical. As to conditions: IC50 [gt-1b], NS3/4A protease TRF assay, genotype 1b enzyme 0.2 nM. The method in brief: as §1

In data set [1] (from C=CCCCCC[C@H](NC(=O)OC(C)(C)C)C(=O)N1C[C@@]2(CCc3c(c(C(F)(F)F)nc4ccccc34)O2)C[C@H]1C(=O)N[C@]1(C(=O)NS(=O)(=O)C2(C)CC2)C[C@H]1C=C, 2.94 mM, 75.0 °C), `CC(C)(C)OC(=O)N[C@H]1CCCCCC=C[C@@H]2C[C@@]2(C(=O)NS(=O)(=O)C2(C)CC2)NC(=O)[C@@H]2C[C@]3(CCc4c(c(C(F)(F)F)nc5ccccc45)O3)CN2C1=O` displayed a ring closure, yield of all isomers of 73.4%.
Turning to `CCOC(=O)[C@@]12C[C@H]1C=CCCCCC[C@H](NC(=O)OC(C)(C)C)C(=O)N1C[C@@]3(CCc4c(c(C)nc5c(C(F)(F)F)cccc45)O3)C[C@H]1C(=O)N2`, in data set [1] (from C=CCCCCC[C@H](NC(=O)OC(C)(C)C)C(=O)N1C[C@@]2(CCc3c(c(C)nc4c(C(F)(F)F)cccc34)O2)C[C@H]1C(=O)N[C@]1(C(=O)OCC)C[C@H]1C=C, 3.36 mM, 65.0 °C, 3.0 h), the ring closure, yield of all isomers turned out to be 50%.
In the case of `CCOC(=O)[C@@]12C[C@H]1C=CCCCCC[C@H](NC(=O)OC(C)(C)C)C(=O)N1C[C@@]3(CCc4c(c(C)nc5c(F)cccc45)O3)C[C@H]1C(=O)N2`, the ring closure, yield of all isomers in data set [1] (from C=CCCCCC[C@H](NC(=O)OC(C)(C)C)C(=O)N1C[C@@]2(CCc3c(c(C)nc4c(F)cccc34)O2)C[C@H]1C(=O)N[C@]1(C(=O)OCC)C[C@H]1C=C, 4.53 mM, 65.0 °C, 1.0 h) is 48%.
The molecule `CCOC(=O)[C@@]12C[C@H]1C=CCCCCC[C@H](NC(=O)OC(C)(C)C)C(=O)N1C[C@@]3(CCc4c(c(C)nc5ccc(C)cc45)O3)C[C@H]1C(=O)N2` registered a ring closure, yield of all isomers in data set [1] (from C=CCCCCC[C@H](NC(=O)OC(C)(C)C)C(=O)N1C[C@@]2(CCc3c(c(C)nc4ccc(C)cc34)O2)C[C@H]1C(=O)N[C@]1(C(=O)OCC)C[C@H]1C=C, 3.55 mM, 65.0 °C, 3.0 h) of 68%.
For `CCOC(=O)[C@@]12C[C@H]1C=CCCCCC[C@H](NC(=O)OC(C)(C)C)C(=O)N1C[C@@]3(CCc4c(c(C)nc5ccc(F)cc45)O3)C[C@H]1C(=O)N2`, the ring closure, yield of all isomers in data set [1] (from C=CCCCCC[C@H](NC(=O)OC(C)(C)C)C(=O)N1C[C@@]2(CCc3c(c(C)nc4ccc(F)cc34)O2)C[C@H]1C(=O)N[C@]1(C(=O)OCC)C[C@H]1C=C, 2.83 mM, 75.0 °C, 4.0 h) came out at 47%.
Molecule `CCOC(=O)[C@@]12C[C@H]1C=CCCCCC[C@H](NC(=O)OC(C)(C)C)C(=O)N1C[C@@]3(CCc4c(c(C5CCC5)nc5ccc(OC)cc45)O3)C[C@H]1C(=O)N2` came in with a ring closure, yield of all isomers in data set [1] (from C=CCCCCC[C@H](NC(=O)OC(C)(C)C)C(=O)N1C[C@@]2(CCc3c(c(C4CCC4)nc4ccc(OC)cc34)O2)C[C@H]1C(=O)N[C@]1(C(=O)OCC)C[C@H]1C=C, 4.5 mM, 70.0 °C, 2.2 h) of 72%.
Regarding `Cc1nc2ccc(Cl)cc2c2c1O[C@]1(CC2)C[C@H]2C(=O)N[C@]3(C(=O)NS(=O)(=O)C4(C)CC4)C[C@H]3C=CCCCCC[C@H](NC(=O)OC(C)(C)C)C(=O)N2C1`, the ring closure, yield of all isomers in data set [1] (from C=CCCCCC[C@H](NC(=O)OC(C)(C)C)C(=O)N1C[C@@]2(CCc3c(c(C)nc4ccc(Cl)cc34)O2)C[C@H]1C(=O)N[C@]1(C(=O)NS(=O)(=O)C2(C)CC2)C[C@H]1C=C, 2.4 mM, 75.0 °C, 0.5 h) was 71.6%.
As for `Cc1nc2ccc(OC(F)(F)F)cc2c2c1O[C@]1(CC2)C[C@H]2C(=O)N[C@]3(C(=O)NS(=O)(=O)C4(C)CC4)C[C@H]3C=CCCCCC[C@H](NC(=O)OC(C)(C)C)C(=O)N2C1`, the ring closure, yield of all isomers in data set [1] (from C=CCCCCC[C@H](NC(=O)OC(C)(C)C)C(=O)N1C[C@@]2(CCc3c(c(C)nc4ccc(OC(F)(F)F)cc34)O2)C[C@H]1C(=O)N[C@]1(C(=O)NS(=O)(=O)C2(C)CC2)C[C@H]1C=C, 2.32 mM, 70.0 °C, 6.0 h) came to 71%.
In the case of `Cc1nc2ccccc2c2c1O[C@]1(CC2)C[C@H]2C(=O)N[C@]3(C(=O)NS(=O)(=O)C4(C)CC4)C[C@H]3C=CCCCCC[C@H](NC(=O)OC(C)(C)C)C(=O)N2C1`, the ring closure, yield of all isomers in data set [1] (from C=CCCCCC[C@H](NC(=O)OC(C)(C)C)C(=O)N1C[C@@]2(CCc3c(c(C)nc4ccccc34)O2)C[C@H]1C(=O)N[C@]1(C(=O)NS(=O)(=O)C2(C)CC2)C[C@H]1C=C, 2.5 mM, 65.0 °C, 7.0 h) turned out to be 62.9%.
For the molecule `CC1(S(=O)(=O)NC(=O)[C@@]23C[C@H]2/C=C\CCCCC[C@H](NC(=O)OC2C[C@@H]4C[C@@H]4C2)C(=O)N2C[C@@]4(CCc5c(c(C(F)(F)F)nc6ccc(OCF)cc56)O4)C[C@H]2C(=O)N3)CC1` (stereo partly drawn) [Example 501, (1R,5S)-bicyclo[3.1.0]hex-3-yl [(2R,6S,12Z,13aS,14aR,16aS)-9′-(fluoromethoxy)-14a-{[(1-methylcyclopropyl)sulfonyl]carbamoyl}-5,16-dioxo-5′-(trifluoromethyl)-1,1′,2′,5,6,7,8,9,10,11,13a,14,14a,15,16,16a-hexadecahydrospiro[cyclopropa[e]pyrrolo[1,2-a][1,4]diazacyclopentadecine-2,3′-pyrano[2,3-c]quinolin]-6-yl]carbamate], the EC50 in the data set on HCV genotype 1b replicon (K+ salt) is 3.7 nM. Besides, the IC50 in data set [2] stood at 0.206 nM; in data set [3] (K+ salt) it was 0.6 nM; in data set [4] (K+ salt) it was 0.004 nM.
As to `CCc1nc2ccc(OC)cc2c2c1O[C@]1(CC2)C[C@H]2C(=O)N[C@]3(C(=O)NS(=O)(=O)C4(C)CC4)C[C@H]3/C=C\CCCCC[C@H](NC(=O)O[C@H](C)C3CC3)C(=O)N2C1` [Example 502, (1R)-1-cyclopropylethyl [(2R,6S,12Z,13aS,14aR,16aS)-5′-ethyl-9′-methoxy-14a-{[(1-methylcyclopropyl)sulfonyl]carbamoyl}-5,16-dioxo-1,1′,2′,5,6,7,8,9,10,11,13a,14,14a,15,16,16a-hexadecahydrospiro[cyclopropa[e]pyrrolo[1,2-a][1,4]diazacyclopentadecine-2,3′-pyrano[2,3-c]quinolin]-6-yl]carbamate], in the data set on HCV genotype 1b replicon, the EC50 is 0.29 nM. The figures for the IC50 in data set [2], in data set [3] and in data set [4] were 0.48 nM, 0.121 nM and 0.004 nM, respectively.
As for `CC(C)COC(=O)N[C@H]1CCCCC/C=C\[C@@H]2C[C@@]2(C(=O)NS(=O)(=O)C2(C)CC2)NC(=O)[C@@H]2C[C@]3(CCc4c(c(C(F)(F)F)nc5ccc(OCCCN6CCOCC6)cc45)O3)CN2C1=O` [Example 511, 2-methylpropyl [(2R,6S,12Z,13aS,14aR,16aS)-14a-{[(1-methylcyclopropyl)sulfonyl]carbamoyl}-9′-[3-(morpholin-4-yl)propoxy]-5,16-dioxo-5′-(trifluoromethyl)-1,1′,2′,5,6,7,8,9,10,11,13a,14,14a,15,16,16a-hexadecahydrospiro[cyclopropa[e]pyrrolo[1,2-a][1,4]diazacyclopentadecine-2,3′-pyrano[2,3-c]quinolin]-6-yl]carbamate], the concentration giving a half-maximal response (EC50) in the data set with HCV genotype 1b replicon amounted to 0.782 nM. Besides, the figures for the IC50 in data set [2], in data set [3] and in data set [4] were 0.258 nM, 0.235 nM and 0.008 nM, respectively.
The matching figures for `CCc1nc2ccc(OCCCN3CCOCC3)cc2c2c1O[C@]1(CC2)C[C@H]2C(=O)N[C@]3(C(=O)NS(=O)(=O)C4(C)CC4)C[C@H]3/C=C\CCCCC[C@H](NC(=O)OC(C)(C)C)C(=O)N2C1` [Example 514, tert-butyl {(2R,6S,12Z,13aS,14aR,16aS)-5′-ethyl-14a-{[(1-methylcyclopropyl)sulfonyl]carbamoyl}-9′-[3-(morpholin-4-yl)propoxy]-5,16-dioxo-1,1′,2′,5,6,7,8,9,10,11,13a,14,14a,15,16,16a-hexadecahydrospiro[cyclopropa[e]pyrrolo[1,2-a][1,4]diazacyclopentadecine-2,3′-pyrano[2,3-c]quinolin]-6-yl}carbamate]: 0.668 nM, 0.224 nM, 0.0681 nM and 0.012 nM.
Take `CCc1nc2ccc(OCCN3CCOCC3)cc2c2c1O[C@]1(CC2)C[C@H]2C(=O)N[C@]3(C(=O)NS(=O)(=O)C4(C)CC4)C[C@H]3/C=C\CCCCC[C@H](NC(=O)OCC(C)C)C(=O)N2C1` [Example 515, 2-methylpropyl {(2R,6S,12Z,13aS,14aR,16aS)-5′-ethyl-14a-{[(1-methylcyclopropyl)sulfonyl]carbamoyl}-9′-[2-(morpholin-4-yl)ethoxy]-5,16-dioxo-1,1′,2′,5,6,7,8,9,10,11,13a,14,14a,15,16,16a-hexadecahydrospiro[cyclopropa[e]pyrrolo[1,2-a][1,4]diazacyclopentadecine-2,3′-pyrano[2,3-c]quinolin]-6-yl}carbamate]: in the data set on HCV genotype 1b replicon (HCl salt), the EC50 was 0.503 nM. For the same molecule, the IC50 in data set [2] was determined as 0.292 nM; in data set [3] (HCl salt), 0.0575 nM; in data set [4] (HCl salt), 0.005 nM.

Usually EC50 stands for the midpoint of the concentration-response curve. As a reminder, the IC50 is the midpoint of a concentration-inhibition curve.

The values are drawn from US8987195B2 (priority 2012, dated 2015).
